“Also recorded” adds a separate entry of the source.

The values below come from patent US20020197700A1, “Receptor of the EDb-fibronectin domains” (Schering AG, priority 2000, published 2002).

The test system of experiment [1] is HUVEC (Human Umbilical Vein Endothelial Cells)-spheroids. As to the kind of experiment: splintering test (tube formation test) of endothelial cell spheroids in collagen. The settings on record: for induction of capillary-like structures (tube formation); penetration of endothelial cells in collagen gels: over basal bFGF-induced penetration. Type of experiment: cell-based. Here is the method:
For the splintering test (tube formation test), the following experimental method was used:
Medium: MCDB 131, glutamine, Pen/Strep, amphotericin (0.25 μg/ml), heparin (20 μg/ml), heat-inactivated FCS (10%)
Growth medium: Medium with 2 ng/ml of bFGF and 10 ng/ml of VEGF
Endothelial cells are dissolved with trypsin/EDTA and diluted with 5000 cells/ml in medium with 0.24% methyl cellulose. 200 μl (1000 cells) each are added to bowls of a Greiner plate and incubated overnight. Round cell clusters (spheroids) are harvested with a 1 ml pipette with beveled tips and centrifuged off. Spheroids are resuspended in 1.2% methyl cellulose/FCS and mixed with neutralized collagen gel. EDb and bFGF were co-polymerized.
This peptide thus has a stimulating effect on the penetration of endothelial cells in collagen gels. This peptide therefore corresponds to the binding region of EDb and stimulates, analogously to EDb itself, the penetration of endothelial cells in the collagen.
The method described for FIG. 3 was followed.

In experiment [2] the test system is endothelial cells. Kind of experiment: adhesion test to ED-B-coated plates after pre-incubation of the cells with synthetic ED-B peptides. The conditions noted are these: cells pre-incubated with 250 μM peptide; A595. Format: cell-based. The method, then: Bowls of a 96-bowl plate (Nunc) are covered with protein for one hour at 37° C. With small proteins (<20 kDa) or peptides, it is recommended to allow the latter to dry on the plate (overnight without a cover under the sterile bank). The bowls are then saturated with 1% BSA for 1 hour at 37° C. Cells are dissolved in 1×trypsin, washed with 2% serum to inactivate the trypsin, and resuspended in medium. If antibodies or peptides are to be tested, the cells are pre-incubated in suspension with the latter for 30 minutes at 37° C. 10^4 cells per bowl (96-bowl plate) are incubated in a volume of 50-100 μl for 1 hour at 37° C. The supernatant is carefully poured off, the plate can be left inverted to drain on a paper towel for one minute and attached cells are stained with crystal violet/glutaric aldehyde for 15 minutes and attached. The bowls are washed three times with PBS, and the cells are then lysed by adding 2% SDS (15 minutes in the shaker). The absorption at 595 nm is measured. After washing three times with water, the cells, if desired, can be stained again.
The adherence was determined by the determination of the extinction at 595 nm (A595). The peptide designations that are applied in the figure are explained in FIG. 6. In this case, peptide sequence No. 043 corresponds to the sequence that is represented in SEQ ID NO: 1, peptide sequence No. 553 corresponds to SEQ ID NO: 2, peptide sequence No. 038 corresponds to SEQ ID NO: 3. A higher A595 value corresponds to a non-inhibited adherence, while a lower A595 value corresponds to an inhibition of the adherence by the corresponding peptide.
The method described for FIG. 4 was followed.

Experiment [3] has as its target T1, biontinylated protein with an apparent molecular weight of 120-130 kDa (receptor of the EDb-fibronectin domains) (Homo sapiens, UniProt P05556).
T1 construct: proliferating endothelial cells that are biotinylated on the cell surface were lysed with a detergent; endogenous in cells; host or cells: proliferating human skin endothelial cells, surface-biotinylated, lysed in CHAPS
Kind of experiment: affinity chromatography of cell lysate from surface-labeled human skin endothelial cells. Format: binding. The conditions noted are these: proliferating endothelial cells; EDTA elution; SDS-PAGE, Western Blot. Here is the method: In this respect, proliferating endothelial cells that are biotinylated on the cell surface were lysed with a detergent and subjected to an affinity chromatography, in which short fragments of fibronectin were coupled to sepharose with or without the inserted EDb-fibronectin domains (with the EDb-fibronectin domains=Fn-7-B-8-9, without the EDb-fibronectin domains=Fn-7-8-9). […] The elution is carried out by means of EDTA. Several fractions, described below, were collected. The fractions were then subjected to SDS-PAGE and studied with Western Blot with streptavidin-peroxidase and chemiluminescence (ECL). Traces 1 and 5 show pre-elution fractions, while traces 2, 3, 4 or 6, 7, 8 show the eluted fractions 1, 2 and 3. Traces 1-4 show the chromatography with Fn-7-8-9, while traces 5-8 show the chromatography with Fn-7-B-8-9.
Method: The cell culture bottles are washed respectively 3 times with PBS w/Ca+Mg before and after the biotinylation. Before the last washing process, the biotin buffer (1 mg/15 ml of PBS) is prepared. Into each of the bottles, 5 ml of the buffer (for 225 cm^2) or 12.5 ml (500 cm^2 plates) is pipetted into the center of the bottom, so that the volume can disperse over the entire bottom of the bottle while swinging around. The first culture bottle is then treated with half of the lysis buffer volume. […]

Experiment [4] deals with band with an apparent molecular weight of 120-130 kDa (receptor of the EDb-fibronectin domains). As to the kind of experiment: affinity chromatography of cell lysate from surface-labeled human skin stromal cells. The conditions noted are these: Western Blot. Format: binding. Here is the method: Method: The lysate is first put on the column three times.
EDTA-Elution: EDTA complexes the Ca and Mg ions. As a result, the endothelial-cell proteins are eluted, which require Ca and Mg for binding. 2×4 ml of EDTA-buffer is put on the column (or on both columns) and collected in two fractions (E1 and E2/BE1 and BE2) in Falcon tubes. Then, the tube contents are mixed, and […] is pipetted off into one (or two) Eppendorf vessel(s).
The fractions or pre-elution fractions that are thus obtained were separated with SDS-PAGE and subjected to a Western Blot under reducing conditions.
In the Western Blot shown in FIG. 11, traces 1-3 show the elution of an affinity column with Fn-7-8-9, while traces 4-6 show the elution of an affinity column of Fn-7-B-8-9. Traces 1 and 4 are pre-elution factors, while traces 2, 3 or 5, 6 show fractions 1 and 2 of the respective elution run.

A further experiment has as its system endothelial cells (EC). Kind of experiment: proliferation assay (MTS) of endothelial cells. Format: cell-based. The conditions noted are these: soluble ED-B 10 μg/l, 3 days; for action on human endothelial cell proliferation: bFGF-induced. Here is the method: (§1) 1000 cells per bowl were incubated in 96-bowl plates. Soluble ED-B (10 μg/l) was added to the medium during the proliferation assay. After three days, the cell count was determined with the MTS assay. The proliferation of cells was induced by a basic […] growth factor (bFGF). […] In the case of human stromal cells on gelatin (SC/gelatin), even in the absence of bFGF proliferation occurred that considerably exceeded that of human endothelial cells.
(§2) For the proliferation assay, the following experimental method was followed:
(§3) Material: 96-bowl plate (flat-bottomed), Nunc
(§4) Medium: MCDB 131, Pen/Strep, amphotericin (0.25 μg/ml), heparin (20 μg/ml), heat-inactivated FCS (5%)
(§5) Cells, 500-1000 per bowl (96-bowl plate) in 100 μl, are cultivated for 3 days in a medium with bFGF (1-3 ng/ml) or VEGF (30-50 ng/ml). The exact amount should be determined for each batch by titration: the minimum concentration that reaches the maximum proliferation stimulation is optimal. A synchronization of the cells before the experiment is not necessary, but can be done. After 3 days, the cell count is determined with the MTS kit (Promega) according to manufacturer's information. It is recommended to measure the absorption at several points to obtain a maximum absorption in the linear range (0.5; 1; 2; 4 hours).
Negative control, no mitogen (no proliferation) (−bFGF/VEGF) Positive control, with mitogen (maximum stimulation) (+bFGF/VEGF)

Another experiment concerns stromal cells (SC). As to the kind of experiment: proliferation assay (MTS) of stromal cells. The conditions noted are these: SC/gelatin; bFGF+ED-B; 3 days. Type of experiment: cell-based, human. Here is the method: as §1, §2, §3, §4
as §5, with “hours). […]” for “hours).”

The test system of experiment [5] is endothelial cells. As to the kind of experiment: adhesion test of endothelial cells to coated microtiter-bowl plates. Type of experiment: cell-based. The conditions noted are these: plates coated with 0-40 μg/ml ED-B; 1 hour; crystal violet, A595. Here is the method:
As a negative control, bowls were used that were coated with 1 mg/ml of BSA (bovine serum albumin); the adhesion to BSA (<10%) was subtracted.
The adherence was quantified by staining with crystal violet, followed by a lysis with SDS. The quantification was carried out by measuring the extinction at 595 nm. A line drawn horizontally in the figure at A595 nm≈1.06 indicates the 100% adhesion to plasma-fibronectin.
For the adherence/adhesion test, the following experimental method was used:
Medium: MCDB 131, Pen/Strep, amphotericin (0.25 μg/ml), heparin (20 μg/ml), 0.1% BSA (Sigma, ethanol-precipitated)
0.1% crystal violet, 2% glutaric aldehyde in PBS, sterilized by filtration 2% SDS
Bowls of a 96-bowl plate (Nunc) are covered with protein for one hour at 37° C. With small proteins (<20 kDa) or peptides, it is recommended to allow the latter to dry on the plate (overnight without a cover under the sterile bank). The bowls are then saturated with 1% BSA for 1 hour at 37° C. Cells are dissolved in 1×trypsin, washed with 2% serum to inactivate the trypsin, and resuspended in medium. If antibodies or peptides are to be tested, the cells are pre-incubated in suspension with the latter for 30 minutes at 37° C. 10^4 cells per bowl (96-bowl plate) are incubated in a volume of 50-100 μl for 1 hour at 37° C. […] The absorption at 595 nm is measured. […]

T1 sequence (P05556 21-798): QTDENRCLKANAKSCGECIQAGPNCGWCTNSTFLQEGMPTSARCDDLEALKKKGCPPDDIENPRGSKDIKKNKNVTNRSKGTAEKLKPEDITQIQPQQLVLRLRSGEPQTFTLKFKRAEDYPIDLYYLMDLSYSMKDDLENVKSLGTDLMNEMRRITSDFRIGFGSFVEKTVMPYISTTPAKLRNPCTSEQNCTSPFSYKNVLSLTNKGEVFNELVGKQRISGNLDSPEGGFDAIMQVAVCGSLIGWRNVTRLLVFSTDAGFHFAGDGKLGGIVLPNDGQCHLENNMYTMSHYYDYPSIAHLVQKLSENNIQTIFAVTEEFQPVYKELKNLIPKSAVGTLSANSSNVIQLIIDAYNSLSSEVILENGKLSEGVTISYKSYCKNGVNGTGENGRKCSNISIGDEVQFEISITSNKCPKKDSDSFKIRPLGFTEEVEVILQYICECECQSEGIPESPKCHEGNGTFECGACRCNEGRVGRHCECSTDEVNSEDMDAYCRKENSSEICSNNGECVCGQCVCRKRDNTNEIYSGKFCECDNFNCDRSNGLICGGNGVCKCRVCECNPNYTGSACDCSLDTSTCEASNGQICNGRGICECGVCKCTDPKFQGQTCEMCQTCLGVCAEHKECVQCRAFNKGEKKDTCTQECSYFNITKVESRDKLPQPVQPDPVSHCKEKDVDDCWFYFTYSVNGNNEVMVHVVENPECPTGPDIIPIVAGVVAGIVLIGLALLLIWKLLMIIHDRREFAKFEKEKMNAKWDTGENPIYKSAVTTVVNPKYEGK
T1 sequence (P17301 30-1181 partner): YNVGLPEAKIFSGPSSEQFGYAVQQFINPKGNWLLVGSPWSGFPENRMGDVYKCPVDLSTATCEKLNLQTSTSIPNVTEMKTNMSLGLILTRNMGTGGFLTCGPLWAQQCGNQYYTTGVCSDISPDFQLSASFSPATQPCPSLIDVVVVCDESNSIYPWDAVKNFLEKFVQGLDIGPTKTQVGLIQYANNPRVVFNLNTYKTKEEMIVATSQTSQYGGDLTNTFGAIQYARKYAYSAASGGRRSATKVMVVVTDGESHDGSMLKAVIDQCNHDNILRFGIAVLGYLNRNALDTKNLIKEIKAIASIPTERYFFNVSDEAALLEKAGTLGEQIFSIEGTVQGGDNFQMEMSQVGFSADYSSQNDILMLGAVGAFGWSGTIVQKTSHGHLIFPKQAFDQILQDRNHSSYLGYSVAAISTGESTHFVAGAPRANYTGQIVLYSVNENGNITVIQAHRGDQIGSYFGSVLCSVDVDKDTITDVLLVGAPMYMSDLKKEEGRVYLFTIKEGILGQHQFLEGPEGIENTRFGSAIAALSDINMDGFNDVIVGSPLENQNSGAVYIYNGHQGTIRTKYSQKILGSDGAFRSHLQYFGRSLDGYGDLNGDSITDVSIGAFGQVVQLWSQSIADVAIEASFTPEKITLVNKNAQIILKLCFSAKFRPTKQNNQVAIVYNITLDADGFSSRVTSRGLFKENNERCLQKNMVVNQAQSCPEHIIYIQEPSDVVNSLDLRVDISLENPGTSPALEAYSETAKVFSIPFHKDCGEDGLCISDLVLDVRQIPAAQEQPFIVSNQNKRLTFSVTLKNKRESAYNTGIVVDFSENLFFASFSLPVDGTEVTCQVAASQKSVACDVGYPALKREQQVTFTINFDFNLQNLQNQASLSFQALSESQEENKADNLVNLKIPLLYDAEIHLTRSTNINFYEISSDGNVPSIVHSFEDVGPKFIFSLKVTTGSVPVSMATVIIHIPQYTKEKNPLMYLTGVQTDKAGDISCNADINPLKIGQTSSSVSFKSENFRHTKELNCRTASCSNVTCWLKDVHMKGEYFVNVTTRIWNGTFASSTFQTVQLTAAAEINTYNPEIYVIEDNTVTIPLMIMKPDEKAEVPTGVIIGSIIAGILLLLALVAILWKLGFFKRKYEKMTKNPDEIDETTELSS

In the case of “peptide No. 2: synthetic peptide derived from loop 5 of ED-B, SEQ ID NO: 2 (GYYTVTGLEPGIDYD)”, the “induction of capillary-like structures (tube formation); penetration of endothelial cells in collagen gels” value in experiment [1] was “maximum effect”. Also, in the experiment with endothelial cells [2], the “inhibition of adherence of endothelial cells to ED-B-coated plates” value (“inhibition” below) was “inhibitory”.

Take “1: synthetic peptide, partial sequence of the EDb-fibronectin domains, SEQ ID NO: 1 (VDITDSSIGLRWTPL) [compound 1]”: the “inhibition” value in the experiment with endothelial cells [2] was “inhibitory”.

As for “3: synthetic peptide, partial sequence of the EDb-fibronectin domains, SEQ ID NO: 3 (TGLEPGIDYDISVIT) [compound 3]”, the “inhibition” value in the experiment on endothelial cells [2] is reported as “inhibitory”.

Turning to “Fn-7-B-8-9: recombinant fibronectin fragment with domains 7, EDb, 8 and 9”, the “binding of 120-130 kDa surface protein to sepharose-coupled fragment” value in experiment [3] is “binds specifically”. In addition, the “prominent 120-130 kDa band in eluate of affinity column” value in experiment [4] is given as “cannot be determined”.

Consider “ED-B: recombinant His-tagged EDb-fibronectin domain (type III repeat), expressed in E. coli”, for which the figures for the “action on human endothelial cell proliferation” value with endothelial cells (EC) (EC/collagen) and in the experiment on endothelial cells (EC) (EC/gelatin) were “not as significant as in the flattening-out on gelatin” and “action of ED-B on human endothelial cell proliferation could be determined”, respectively. In addition, the “action on proliferation of cells (extinction at 490 nm)” value in the experiment with endothelial cells (EC) (absence of bFGF, MTS assay) is listed as “no action”. The “proliferation of human stromal cells” value in the experiment with stromal cells (SC) is on record as “could not be increased”. Moreover, the “splintering of endothelial cells from spheroids” value in experiment [1] (embedded in collagen, 10 μg/ml bFGF, 6 μg/ml ED-B) is “further stimulated; also recorded: significant increase in splintering”. In addition, the “induction of capillary-like structures (tube formation); penetration of endothelial cells in collagen gels” value in experiment [1] is “stimulates”. For the same substance, the “adhesion of endothelial cells to coated surfaces” value with endothelial cells [5] is listed as “cells adhere”.
